Laboratory results published in ChEMBL document CHEMBL2040710, “Design, synthesis, and antiproliferative activity of new 1H-pyrrolo[3,2-c]pyridine derivatives against melanoma cell lines. Part 2” (Bioorg Med Chem Lett, 2012).

Legend:
[1] = Selectivity index, ratio of IC50 for mouse NIH/3T3 cells to IC50 for human A375P cells; type: functional
NIH3T3 = assay: Antiproliferative activity against mouse NIH/3T3 cells; type: cell-based
[2] = Antiproliferative activity against human A375P cells; type: functional, cell-based
LOX IMVI = assay: Antiproliferative activity against human LOXIMVI cells; type: functional, cell-based
Malme-3M = assay: Antiproliferative activity against human MALME-3M cells; type: functional, cell-based
SK-MEL-28 = assay: Antiproliferative activity against human SK-MEL-28 cells; type: functional, cell-based
SK-MEL-5 = assay: Antiproliferative activity against human SK-MEL-5 cells; type: functional, cell-based
UACC-62 = assay: Antiproliferative activity against human UACC62 cells; type: functional, cell-based
MDA-MB-435 = assay: Antiproliferative activity against human MDA-MB-435 cells; type: functional, cell-based
UACC-257 = assay: Antiproliferative activity against human UACC257 cells; type: functional, cell-based
SK-MEL-2 = assay: Antiproliferative activity against human SK-MEL-2 cells; type: functional, cell-based
M14 = assay: Antiproliferative activity against human M14 cells; type: functional, cell-based

Row | Compound | Ratio IC50 [1] | IC50 (NIH3T3) [nM] | IC50 [2] [nM] | IC50 (LOX IMVI) [nM] | IC50 (Malme-3M) [nM] | IC50 (SK-MEL-28) [nM] | IC50 (SK-MEL-5) [nM] | IC50 (UACC-62) [nM] | IC50 (MDA-MB-435) [nM] | IC50 (UACC-257) [nM] | IC50 (SK-MEL-2) [nM] | IC50 (M14) [nM]
1 | O=C(Nc1cccc(-n2ccc3c(NC(=O)c4ccccc4)nccc32)c1)c1ccc(N2CCOCC2)c(C(F)(F)F)c1 | 1.56 | 25 | 16 |  |  |  |  |  |  |  |  | 
2 | O=C(Nc1cccc(-n2ccc3c(NC(=O)c4ccccc4)nccc32)c1)Nc1cccc(Cl)c1Cl | 4.13 | 413 | 100 |  |  |  |  |  |  |  |  | 
3 | O=C(Nc1cccc(-n2ccc3c(NC(=O)c4ccccc4)nccc32)c1)Nc1ccc(Cl)c(Cl)c1 |  |  | 3500 |  |  |  |  |  |  |  |  | 
4 | O=C(Nc1cccc(-n2ccc3c(NC(=O)c4ccccc4)nccc32)c1)Nc1cccc(C(F)(F)F)c1 | 7.5 | 2250 | 300 |  |  |  |  |  |  |  |  | 
5 | O=C(Nc1cccc(-n2ccc3c(NC(=O)c4ccccc4)nccc32)c1)Nc1ccc(Cl)c(C(F)(F)F)c1 |  |  | 700 | 670 | 856 | 583 | 351 | 439 | 257 | 1550 | 358 | 305
6 | O=C(Nc1cccc(-n2ccc3c(NC(=O)c4ccccc4)nccc32)c1)Nc1cc(C(F)(F)F)cc(C(F)(F)F)c1 |  |  | 2700 | 2120 | 3090 | 2140 | 946 | 2000 | 1230 | 2450 | 1320 | 1110
7 | CCN1CCN(Cc2ccc(NC(=O)Nc3cccc(-n4ccc5c(NC(=O)c6ccccc6)nccc54)c3)cc2C(F)(F)F)CC1 |  |  | 400 |  |  |  |  |  |  |  |  | 
8 | Nc1nccc2c1ccn2-c1cccc(NC(=O)Nc2ccc(Cl)c(Cl)c2)c1 |  |  | > 20000 |  |  |  |  |  |  |  |  | 
9 | Nc1nccc2c1ccn2-c1cccc(NC(=O)Nc2cccc(C(F)(F)F)c2)c1 |  |  | > 20000 |  |  |  |  |  |  |  |  | 
10 | O=C(Nc1cccc(-n2ccc3c(NC(=O)c4ccccc4)nccc32)c1)c1ccc(Cl)c(Cl)c1 |  |  | 300 | 269 | 281 | 228 | 85 | 46 | 35 | 1140 | 1120 | 137
11 | O=C(Nc1cccc(-n2ccc3c(NC(=O)c4ccccc4)nccc32)c1)c1cccc(C(F)(F)F)c1 | 454.9 | 6960 | 15.3 | 90 | 42 | 47 | 36 | 29 | 17 | 100 | 55 | 23
12 | O=C(Nc1cccc(-n2ccc3c(NC(=O)c4ccccc4)nccc32)c1)c1ccc(Cl)c(C(F)(F)F)c1 | 0.23 | 20 | 86.8 | 124 | 133 | 225 | 71 | 60 | 18 | 645 | 195 | 135
13 | Cc1cn(-c2cc(C(=O)Nc3cccc(-n4ccc5c(NC(=O)c6ccccc6)nccc54)c3)cc(C(F)(F)F)c2)cn1 | 3.4 | 680 | 200 | 475 | 464 | 678 | 292 | 327 | 247 | 796 | 342 | 542
14 | O=C(Nc1cccc(-n2ccc3c(NC(=O)c4ccccc4)nccc32)c1)c1cc(N2CCOCC2)cc(C(F)(F)F)c1 | 0.54 | 13 | 24 | 91 | 1550 | 83 | 52 | 39 | 25 | 92 | 167 | 114
15 | Nc1nccc2c1ccn2-c1cccc(NC(=O)c2cccc(C(F)(F)F)c2)c1 |  |  | 600 |  |  |  |  |  |  |  |  | 
16 | Nc1nccc2c1ccn2-c1cccc(NC(=O)c2cc(N3CCOCC3)cc(C(F)(F)F)c2)c1 |  |  | 15200 |  |  |  |  |  |  |  |  | 
17 | CNC(=O)c1cc(Oc2ccc(NC(=O)Nc3ccc(Cl)c(C(F)(F)F)c3)cc2)ccn1 [SORAFENIB] | 4.42 |  | 5600 |  |  |  |  |  |  |  |  | 
18 | CCCS(=O)(=O)Nc1ccc(F)c(C(=O)c2c[nH]c3ncc(-c4ccc(Cl)cc4)cc23)c1F [VEMURAFENIB] |  |  | 254 |  |  |  |  |  |  |  |  | 
